# Assay results published in patent publication US10406120B2, “Methods and compositions for treating kidney disorders” (Golden Biotechnology Corporation, priority 2013, dated 2019).
# Experiments:
# Type in all cases: in vivo, B cell-deficient mice
# mononuclear leukocytes = assay: AcP-IgAN model: leukocyte infiltration in the kidney (IF/IHC); details: AcP-IgAN mice
# Protocol: (§1) B cell-deficient mice (B6.129S2-Igh-6tm1Cgn/J) were obtained from the Academia Sinica (Professor John T. Kung, Institute of Molecular Biology), and maintained at the animal center of the National Defense Medical Center, Taipei, Taiwan. AcP-IgAN was induced in the mice by daily injection of purified IgA anti-phosphorylcholine antibodies and pneumococcal C-polysaccharide (PnC) as described previously (Chao, et al., Kidney Int. 70:283-297; 2006). All animal experiments were performed with the approval of the Institutional Animal Care and Use Committee of The National Defense Medical Center, Taiwan, and were consistent with the NIH Guide for the Care and Use of Laboratory Animals.
# For IHC, formalin fixed and paraffin embedded tissue sections or frozen sections were incubated with against IL-6 (R&D Systems, MN), MCP-1 (Santa Cruz, Calif.), F4/80 (monocytes/macrophages; Serotec, N.C.), collagen IV (Southern Biotech, AL), TGF-β1 (Santa Cruz), phopsho-NFκB p65 (Cell Signaling, MA), CD3 (pan-T cell; Serotec), CD4 (T helper cell; BioLegend, CA), CD8 (cytotoxic T cell), CD11b (macrophages/neutrophils), or CD11c (dendritic cells) (BD Biosciences, CA) antibodies. The FITC-conjugated, Alexa Fluor 488-conjugated (Invitrogen, CA) or horseradish peroxidase (HRP) conjugated secondary antibodies (DAKO, Denmark) were then applied to the sections. […]
# ROS = assay: AcP-IgAN model: ROS levels; details: AcP-IgAN mice
# Protocol: Kidney in-situ superoxide anion production was determined by DHE labeling according to the known method. (Wu, et al., Nephrol Dial Transplant, 2008, 23: 3082-3090, or Ka, et al., J. Am. Soc. Nephrol. 2007, 18:2473-2485) Fluorescent images were quantified by counting the percentage of positive nuclei in the total nuclei per kidney cross section. Sera and kidney tissues were assessed for superoxide anion according to the known method. (Wu, et al., J Pineal Res, 2001, 30: 147-156, or Ka, et al., J. Am. Soc. Nephrol. 2007, 18:2473-2485) For ROS levels of serum, urine, and renal tissue, the samples were incubated with Krebs-HEPES buffer, and lucigenin (Sigma-Aldrich Chemical Co, MO) at 1.25 mM was used as substrate. Luminescence counts were obtained in duplicate at 15 sec intervals by a microplate luminometer (Hidex Microplate Luminometer, Finland), as previously described (Kretzler, et al.,. Virchows Arch, 425: 181-193, 1994). The superoxide anion activity was expressed as relative luminescence units (RLU) per 15 min per mg of organ dry weight (i.e., RUL/15 min/mg) or RLU/15 min/ml.
# as §1
# [1] = system: glutathione peroxidase (GPx); assay: AcP-IgAN model: renal GPx; details: AcP-IgAN mice
# Protocol: as §1
# Nuclear proteins were extracted using a nuclear extract kit (Active Motif, Japan). Phospho-NF-κB p65 and nuclear factor-erythroid-2-related factor 2 (NrF2) were measured in renal tissue nuclear protein extracts using Trans-AM ELISA assay kits (Active Motif), according to the manufacturer's instructions. Renal cytosolic protein extracts using RIPA buffer (Cell signaling). Cytosolic glutathione peroxidase (GPx) (Cayman, Mich.) and cytosolic heme oxygenase-1 (HO-1) (Enzo Life Sciences, NY) were measured using commercial ELISA kits according to the manufacturer's instructions. Both were expressed relative to the protein concentration in the lysate.
# IL-1β = assay: AcP-IgAN model: serum IL-1β ELISA; details: AcP-IgAN mice, day 28, vs control AcP-IgAN mice (FIG. 15C)
# Protocol: as §1
# Serum levels of IL-1β (eBiosceience, CA), IL-6 (eBiosceience), IL-18 (MBL, Japan), and MCP-1 (eBiosceience) were measured using commercial ELISA kits according to the manufacturer's instructions.
# NLRP3 = assay: AcP-IgAN model: renal NLRP3 mRNA and protein; details: AcP-IgAN mice
# Protocol: as §1
# Total cortical kidney RNA was extracted with TriZOL reagents (Invitrogen) from cortical tissue of the kidney. For first-strand cDNA synthesis, 1.5 μg of total RNA was used in a single-round reverse transcriptase reaction. The reaction mixture consisted of 0.9 μl of Oligo (dT) 12 to 18 primer, 1.0 mM deoxyribonucleotide triphosphate (dNTP), 1 μl first strand buffer, 0.4 mM dithiothreitol, 80 U of RNaseout recombinant ribonuclease inhibitor, and 300 U of superscript II RNase H (Invitrogen). Real-time PCR was performed on an ABI Prism 7700 Sequence Detection System (Applied Biosystems, CA). All of the probes and primers were Assays-on-Demand Gene expression products (Applied Biosystems). Real-time PCR reactions were using 10 μl of cDNA, 12.5 μl of TaqMan Universal PCR Master Mix (Applied Biosystems), and 1.25 μl of the specific probe/primer mixed in a total volume of 25 μl. The thermal cycler conditions were as follows: 2 min at 50° C., 10 min at 95° C., 40 cycles of denaturation (15 s at 95° C.), and combined annealing/extension (1 min at 60° C.).
# (§2) Each protein sample was run on a 10% SDS-PAGE gel. […] The membrane-bound antibody detected was incubated with chemiluminescent reagent plus (PerkinElmer Life Sciences, MA) and captured on x-ray film.
# caspase-1 = assay: AcP-IgAN model: renal caspase-1 mRNA and protein; details: AcP-IgAN mice
# Protocol: as §1
# (§3) Total cortical kidney RNA was extracted with TriZOL reagents (Invitrogen) from cortical tissue of the kidney. For first-strand cDNA synthesis, 1.5 μg of total RNA was used in a single-round reverse transcriptase reaction. The reaction mixture consisted of 0.9 μl of Oligo (dT) 12 to 18 primer, 1.0 mM deoxyribonucleotide triphosphate (dNTP), 1 μl first strand buffer, 0.4 mM dithiothreitol, 80 U of RNaseout recombinant ribonuclease inhibitor, and 300 U of superscript II RNase H (Invitrogen). […]
# as §2
# IL-18 = assay: AcP-IgAN model: renal IL-18 mRNA and protein; details: AcP-IgAN mice
# Protocol: as §1
# as §3, with “(Invitrogen). Real-time PCR was performed on an ABI Prism 7700 Sequence Detection System (Applied Biosystems, CA). All of the probes and primers were Assays-on-Demand Gene expression products (Applied Biosystems).” for “(Invitrogen).”
# IL-1beta = assay: AcP-IgAN model: renal IL-1beta mRNA
# Protocol: as §1
# as §3, with “(Invitrogen). Real-time PCR was performed on an ABI Prism 7700 Sequence Detection System (Applied Biosystems, CA). All of the probes and primers were Assays-on-Demand Gene expression products (Applied Biosystems).” for “(Invitrogen).”
# [2] = day 3, vs control AcP-IgAN mice
# [3] = day 28, vs control AcP-IgAN mice
# [4] = day 3 until day 28, real-time PCR
smiles,measurement,setting,value
"COC1=C(OC)[C@H](O)[C@H](C/C=C(\C)CC/C=C(\C)CCC=C(C)C)[C@@H](C)C1=O [Compound 1, Antroquinonol]","infiltration of pan-T cells, neutrophils and monocytes/macrophages in the kidney",mononuclear leukocytes; day 3,no detectable signals
same,"infiltration of inflammatory cells (CD3^+, CD4^+, CD8^+, CD11c+, F4/80+, CD11b+) in the kidney","mononuclear leukocytes; day 28, vs AcP-IgAN mice",significantly decreased infiltration
same,ROS levels in sera,ROS; [2],substantial reduction
same,ROS levels in renal tissues,ROS; [3],substantial reduction
same,ROS levels in sera,ROS; [3],substantial reduction
same,ROS levels in urine,ROS; [3],substantial reduction
same,GPx expression levels in renal tissues,[1]; [2],no difference
same,GPx expression levels in renal tissues,[1]; [3],significantly higher
same,serum levels of IL-1β (increase),IL-1β,greatly inhibited
same,protein levels of NLRP3 in the kidney (increase),"NLRP3; both day 3 and day 28, vs AcP-IgAN mice",significantly inhibited
same,renal NLRP3 mRNA expression levels,NLRP3; day 3,no effects
same,renal mRNA levels of NLRP3,NLRP3; [3],substantially reduced
same,renal increase in caspase-1 protein levels,"caspase-1; both day 3 and day 28, vs control AcP-IgAN mice",greatly inhibited
same,renal mRNA expression levels of caspase-1 (elevation),caspase-1; [4],greatly inhibited
same,renal mRNA expression levels of IL-18 (elevation),IL-18; [4],greatly inhibited
same,renal IL-18 protein production,IL-18; only at day 28,significantly inhibited
same,renal mRNA levels of IL-1beta (elevation),"IL-1beta; AcP-IgAN mice, day 28, vs control AcP-IgAN mice",significantly inhibited
same,renal IL-1beta mRNA expression,"IL-1beta; all mice, day 3",no detectable increase
